Reference: patent US20260199369A1, “COMPOUNDS FOR THE TREATMENT OF NEUROMUSCULAR DISORDERS” (NMD PHARMA A/S, priority 2022, published 2026)
Like-named read-outs stand apart in the source and are kept apart here.

Assays:
CIC-1 ion channel = molecular target: T1, CIC-1 ion channel (Rattus norvegicus, UniProt P35524); assay: Electrophysiological measurement of compound inhibition of CIC-1 in rat muscle (Gm, three micro-electrodes technique); assay type: cell-based; settings: Gm in fibres of whole rat soleus muscle, four increasing compound concentrations; read-out: Potency Range (EC50, inhibition of CIC-1 ion channel)
T1 construct: from tissue; host or cells: whole soleus muscle of 12-14 week old Wistar rats
T1 sequence (P35524 1-994): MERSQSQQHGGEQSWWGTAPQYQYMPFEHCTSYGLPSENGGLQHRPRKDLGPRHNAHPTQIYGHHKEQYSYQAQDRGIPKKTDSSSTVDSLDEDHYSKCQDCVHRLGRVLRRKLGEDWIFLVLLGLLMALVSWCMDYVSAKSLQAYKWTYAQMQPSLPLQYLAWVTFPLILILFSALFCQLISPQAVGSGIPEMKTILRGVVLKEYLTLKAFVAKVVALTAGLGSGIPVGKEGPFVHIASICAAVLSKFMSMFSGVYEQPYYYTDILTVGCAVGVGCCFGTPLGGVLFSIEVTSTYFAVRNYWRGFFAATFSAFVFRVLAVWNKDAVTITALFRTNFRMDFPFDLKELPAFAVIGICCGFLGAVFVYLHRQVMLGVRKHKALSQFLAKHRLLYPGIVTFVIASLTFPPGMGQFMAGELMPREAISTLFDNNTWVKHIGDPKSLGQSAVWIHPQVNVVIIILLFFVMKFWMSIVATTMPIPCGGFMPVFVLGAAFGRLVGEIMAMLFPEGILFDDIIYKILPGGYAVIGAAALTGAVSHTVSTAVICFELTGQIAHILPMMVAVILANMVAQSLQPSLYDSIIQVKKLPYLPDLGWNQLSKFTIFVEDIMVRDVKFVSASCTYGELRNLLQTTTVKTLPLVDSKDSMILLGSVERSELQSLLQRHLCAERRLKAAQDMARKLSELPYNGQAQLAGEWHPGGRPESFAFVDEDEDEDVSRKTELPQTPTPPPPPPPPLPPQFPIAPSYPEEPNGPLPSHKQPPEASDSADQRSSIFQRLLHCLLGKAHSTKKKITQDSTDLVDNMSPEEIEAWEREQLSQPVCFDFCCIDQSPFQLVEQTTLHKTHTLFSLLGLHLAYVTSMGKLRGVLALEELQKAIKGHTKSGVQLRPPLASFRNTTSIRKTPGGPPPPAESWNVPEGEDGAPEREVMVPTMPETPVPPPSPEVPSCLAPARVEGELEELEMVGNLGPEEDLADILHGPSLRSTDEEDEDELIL
Description: Apparent CIC-1 affinity was reported by the concentration of compound at which 50% of the compound's full inhibition of CIC-1 was observed (EC50) (see also WO2019/115777).
Experimentally, Gm was measured in individual fibres of whole rat soleus muscles using a three micro-electrodes technique described in this example and in full detail elsewhere (Riisager et al., Determination of cable parameters in skeletal muscle fibres during repetitive firing of action potentials. Journal of Physiology, 2014, 592, 4417-4429). Briefly, intact rat soleus muscles were dissected out from 12-14 week old Wistar rats and placed in an experimental chamber that was perfused with a standard Krebs Ringer solution containing 122 mM NaCl, 25 mM NaHCO3, 2.8 mM KCl, 1.2 mM KH2PO4, 1.2 mM MgSO4, 1.3 mM CaCl2), 5.0 mM D-glucose. During experiments, the solution was kept at approx. 30° C. and continuously equilibrated with a mixture of 95% O2 and 5% CO2, pH ~7.4. The experimental chamber was placed in Nikon upright microscope that was used to visualize individual muscle fibres and the three electrodes (glass pipettes filled with 2 M potassium citrate). For Gm measurements, the electrodes were inserted into the same fibre with known inter-electrode distances of 0.35-0.5 mm (V1-V2, X1) and 1.1-1.5 mm (V1-V3, X3). The membrane potential of the impaled muscle fibre was recorded by all electrodes. Two of the electrodes were furthermore used to inject 50 ms current pulses of −30 nA. […] The steady state voltage deflection at each distance was divided by the magnitude of current injected (−30 nA) and the resulting transfer resistances were plotted against inter-electrode distance and the data was fitted to a mono-exponential function from which Gm could be calculated using linear cable theory.
To establish a dose response relationship, Gm was first determined in 10 muscle fibres in the absence of compound and then at four increasing compound concentrations with Gm determinations in 5-10 fibres at each concentration. The average Gm values at each concentration were plotted against compound concentration and the data was fitted to sigmoidal function to obtain an EC50 value.

[1] = system: isolated rat soleus muscles; assay: Measurement of force in an in vitro model: recovery of contractile force of isolated rat soleus nerve-muscle preparation after tubocurarine; settings: 40 min, read-out: Point increase (%): percentage increase of initial force that was restored; for activation at 50 µM: 50 μM of test compound
Description: The current disclosure relates to compounds that inhibit CIC-1 ion channels and increase muscle excitability and thereby improve muscle function in clinical conditions where muscle activation is failing. Such conditions result in loss of contractile function of skeletal muscle, weakness and excessive fatigue. In this series of experiments the compounds were tested for their ability to restore contractile function of isolated rat muscle when the neuromuscular transmission had been compromised akin to neuromuscular disorders.
Experimentally, soleus muscles from 4-5 wk old rats were isolated with the motor nerve remaining attached. The nerve-muscle preparations were mounted in experimental setups that enabled electrical stimulation of the motor nerve. Stimulation of the motor nerve led to activation of the muscle fibres and ensuing force production that was recorded. The nerve-muscle preparations were also in these experiments incubated in the standard Krebs Ringer (see example 15) and the solution was heated to 30° C. and continuously equilibrated with a mixture of 95% O2 and 5% CO2, pH ~7.4.
After mounting the nerve-muscle preparation in the experimental setup, the contractile function of the muscle was initially assessed under the control conditions. Sub-maximal concentration of tubocurarine (115 nM), an acetylcholine receptor antagonist, was then added to the experimental bath to impose partial inhibition of the ability of the motor nerve to activate the muscle fibres. The experimental condition mimics the failing neuromuscular transmission in a range of neuromuscular disorders. After addition of tubocurarine the contractile force declined over the next 90 minutes to 10-50% of the control force. The test compound was then added to obtain the required compound concentration in the bath and the contractile force recovered was measured. To quantify the ability of the compound to restore force the percentage of the initial force that was restored was determined after 40 mins of compound exposure and the point increase is reported in Tables 3 to 7.

[2] = 10 μM of test compound, tubocurarine 115 nM, after 40 mins of compound exposure
[3] = tubocurarine 115 nM, after 40 mins of compound exposure
[4] = 25 μM of test compound, tubocurarine 115 nM, after 40 mins of compound exposure

SMILES | EC50 (CIC-1 ion channel) [nM] | activation at 10 µM [1, 2] [%] | also measured
CCN1CCOc2c1cc(Cl)c(OC)c2C(=O)O [Compound A-28, 6-Chloro-4-ethyl-7-methoxy-3,4-dihydro-2H-1,4-benzoxazine-8-carboxylic acid] | 200 to 1000 |  | activation at 25 µM [1]: 36%
CN1CC(C)(C)Oc2c1cc(Cl)c(F)c2C(=O)O [Compound A-9, 6-Chloro-7-fluoro-2,2,4-trimethyl-3,4-dihydro-2H-1,4-benzoxazine-8-carboxylic acid] | 1000 to 5000 | 37 | 
COc1ccc(CN2CCOc3cc(Cl)c(F)c(C(=O)O)c32)cc1 [Compound A-58, 7-Chloro-6-fluoro-4-[(p-methoxyphenyl)methyl]-3,4-dihydro-2H-1,4-benzoxazine-5-carboxylic acid] | 200 to 1000 | 35 | 
COc1c(Cl)cc2c(c1C(=O)O)OCCN2C [Compound A-2, 6-Chloro-7-methoxy-4-methyl-3,4-dihydro-2H-1,4-benzoxazine-8-carboxylic acid] | 200 to 1000 | 32 | 
COc1c(F)cc2c(c1C(=O)O)OCCN2C [Compound A-30, 6-Fluoro-7-methoxy-4-methyl-3,4-dihydro-2H-1,4-benzoxazine-8-carboxylic acid] | 200 to 1000 |  | activation at 10 µM [1]: 39%
Cc1ccc(CN2CCOc3cc(Cl)c(F)c(C(=O)O)c32)cc1 [Compound A-60, 7-Chloro-6-fluoro-4-[(p-tolyl)methyl]-3,4-dihydro-2H-1,4-benzoxazine-5-carboxylic acid] | 200 to 1000 | 17 | 
CN1CCSc2c1cc(Cl)c(F)c2C(=O)O [Compound A-19, 6-chloro-7-fluoro-4-methyl-3,4-dihydro-2H-1,4-benzothiazine-8-carboxylic acid] | 1000 to 5000 | 28 | 
COc1c(Cl)cc2c(c1C(=O)O)OCCO2 [Compound A-1, 7-Chloro-6-methoxy-2,3-dihydro-1,4-benzodioxine-5-carboxylic acid] | 5000 to 15000 |  | activation at 50 µM [1, 3]: 31%
O=C(O)c1c(F)c(Cl)cc2c1OCCN2 [Compound A-6, 6-Chloro-7-fluoro-3,4-dihydro-2H-1,4-benzoxazine-8-carboxylic acid] | 5000 to 15000 | 19 | 
CN1CCOc2cc(Cl)c(F)c(C(=O)O)c21 [Compound A-3, 7-Chloro-6-fluoro-4-methyl-3,4-dihydro-2H-1,4-benzoxazine-5-carboxylic acid] | 1000 to 5000 |  | activation at 10 µM [1]: 41%

Continued, in another order:

EC50 (CIC-1 ion channel) [nM] | SMILES | activation at 10 µM [1, 2] [%] | also measured
1000 to 5000 | CN1CCCOc2c1cc(Cl)c(F)c2C(=O)O [Compound A-13, 7-Chloro-8-fluoro-5-methyl-2,3,4,5-tetrahydro-1,5-benzoxazepine-9-carboxylic acid] | 30 | 
200 to 1000 | COc1c(Cl)cc2c(c1C(=O)O)SCCN2C [Compound A-29, 6-Chloro-7-methoxy-4-methyl-3,4-dihydro-2H-1,4-benzothiazine-8-carboxylic acid] | 43 | 
1000 to 5000 | CN1CCN(C)c2c1cc(Cl)c(F)c2C(=O)O [Compound A-8, 7-Chloro-6-fluoro-1,4-dimethyl-1,2,3,4-tetrahydroquinoxaline-5-carboxylic acid] | 26 | 
5000 to 15000 | O=C(O)c1c(F)cc(Cl)c2c1OCCN2 [Compound A-5, 5-Chloro-7-fluoro-3,4-dihydro-2H-1,4-benzoxazine-8-carboxylic acid] |  | activation at 50 µM [1, 3]: 44%
1000 to 5000 | COc1c(Cl)cc2c(c1C(=O)O)OCCN2Cc1ccsc1 [Compound A-36, 6-Chloro-7-methoxy-4-[(thiophen-3-yl)methyl]-3,4-dihydro-2H-1,4-benzoxazine-8-carboxylic acid] |  | activation at 25 µM [1, 4]: 36%
200 to 1000 | CN1CCOc2c1cc(Cl)c(F)c2C(=O)O [Compound A-7, 6-Chloro-7-fluoro-4-methyl-3,4-dihydro-2H-1,4-benzoxazine-8-carboxylic acid] |  | 
200 to 1000 | O=C(O)c1c(F)c(Cl)cc2c1N(Cc1ccsc1)CCO2 [Compound A-54, 7-Chloro-6-fluoro-4-[(thiophen-3-yl)methyl]-3,4-dihydro-2H-1,4-benzoxazine-5-carboxylic acid] | 28 | 
1000 to 5000 | CCN1CCOc2c1cc(Cl)c(F)c2C(=O)O [Compound A-18, 6-Chloro-4-ethyl-7-fluoro-3,4-dihydro-2H-1,4-benzoxazine-8-carboxylic acid] | 34 | 
5000 to 15000 | CC(C)CCN1CCOc2c1cc(Cl)c(F)c2C(=O)O [Compound A-17, 6-chloro-7-fluoro-4-(3-methylbutyl)-3,4-dihydro-2H-1,4-benzoxazine-8-carboxylic acid] |  | activation at 50 µM [1, 3]: 29%
1000 to 5000 | CN1CCOc2c1cc(F)c(Cl)c2C(=O)O [Compound A-4, 7-Chloro-6-fluoro-4-methyl-3,4-dihydro-2H-1,4-benzoxazine-8-carboxylic acid] | 36 | 
1000 to 5000 | CCCN1CCOc2c1cc(Cl)c(F)c2C(=O)O [Compound A-21, 6-Chloro-7-fluoro-4-propyl-3,4-dihydro-2H-1,4-benzoxazine-8-carboxylic acid] |  | activation at 25 µM [1, 4]: 29%
